“And” between values parts separate entries of the source, which are not always exact repeats. Equal entries are not always repeated. Inconclusive results and toxic doses are left out. Rule as the data show it: active = T/C of 150% or more; inactive = T/C below 125%.
Test system: L1210 leukemia ip in BDF1 mice, survival T/C
Assay: NCI In Vivo Anticancer Drug Screen. Data for tumor model L1210 Leukemia (intraperitoneal) in B6D2F1 (BDF1) mice
Settings: endpoint: mean survival time, higher = longer survival
Method in brief: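 Transplantable tumor model; survival measured in treated vs vehicle control mice. Value = treated/control.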

[1] = dose: 100.0 mg/kg/injection, schedule: Q01DX001 (ip), vehicle: Klucel (hydroxypropylcellulose) (HPC)
[2] = dose: 200.0 mg/kg/injection, schedule: Q01DX001 (ip), vehicle: Klucel (hydroxypropylcellulose) (HPC)
[3] = dose: 100.0 mg/kg/injection, schedule: Q04DX003 (ip), vehicle: Klucel (hydroxypropylcellulose) (HPC)
[4] = dose: 200.0 mg/kg/injection, schedule: Q04DX003 (ip), vehicle: Klucel (hydroxypropylcellulose) (HPC)
[5] = dose: 100.0 mg/kg/injection, schedule: Q01DX001 (ip), vehicle: other
[6] = dose: 200.0 mg/kg/injection, schedule: Q01DX001 (ip), vehicle: other
[7] = dose: 100.0 mg/kg/injection, schedule: Q01DX009 (ip), vehicle: Klucel (hydroxypropylcellulose) (HPC)
[8] = dose: 200.0 mg/kg/injection, schedule: Q01DX009 (ip), vehicle: Klucel (hydroxypropylcellulose) (HPC)
[9] = dose: 400.0 mg/kg/injection, schedule: Q01DX009 (ip), vehicle: Klucel (hydroxypropylcellulose) (HPC)
[10] = dose: 400.0 mg/kg/injection, schedule: Q04DX003 (ip), vehicle: Klucel (hydroxypropylcellulose) (HPC)
[11] = dose: 100.0 mg/kg/injection, schedule: Q01DX001 (ip), vehicle: carboxymethylcellulose (CMC)
[12] = dose: 200.0 mg/kg/injection, schedule: Q01DX001 (ip), vehicle: carboxymethylcellulose (CMC)
[13] = dose: 400.0 mg/kg/injection, schedule: Q01DX001 (ip), vehicle: carboxymethylcellulose (CMC)

Measured: T/C

Cc1nc(C(=O)O)cs1
inactive: dose: 50.0 mg/kg/injection, schedule: Q01DX009 (ip), vehicle: saline 95 % of control | dose: 50.0 mg/kg/injection, schedule: Q04DX003 (ip), vehicle: acetone 90 % of control | dose: 100.0 mg/kg/injection, schedule: Q01DX001 (ip), vehicle: acetone 98 % of control | dose: 100.0 mg/kg/injection, schedule: Q01DX009 (ip), vehicle: saline 92 % of control | dose: 100.0 mg/kg/injection, schedule: Q04DX003 (ip), vehicle: acetone 92 % of control | dose: 200.0 mg/kg/injection, schedule: Q01DX001 (ip), vehicle: acetone 102 % of control | dose: 200.0 mg/kg/injection, schedule: Q04DX003 (ip), vehicle: acetone 95 % of control

Cc1ccc(NC(=O)CCc2ccc(N3C(N)=NC(N)=NC3(C)C)cc2)cc1S(=O)(=O)F
inactive: [1] 90 % of control | [2] 108 % of control

Cc1nc(SCc2ccccc2)nc(N)c1CN
inactive: dose: 50.0 mg/kg/injection, schedule: Q04DX003 (ip), vehicle: Klucel (hydroxypropylcellulose) (HPC) 113 % of control | [1] 93 % of control | [3] 100 % of control | [2] 98 % of control | [4] 104 % of control

O=C(O)CN(CC(=O)O)Cc1ccccc1
inactive: dose: 5.0 mg/kg/injection, schedule: Q01DX001 (ip), vehicle: saline 102 % of control | dose: 10.0 mg/kg/injection, schedule: Q01DX001 (ip), vehicle: saline 102 % of control | dose: 20.0 mg/kg/injection, schedule: Q01DX001 (ip), vehicle: saline 100 % of control | dose: 40.0 mg/kg/injection, schedule: Q01DX001 (ip), vehicle: saline 100 % of control

N=C(CC(=O)Nc1ccccn1)c1ccccc1
inactive: [5] 100 % of control | [6] 107 % of control | dose: 400.0 mg/kg/injection, schedule: Q01DX001 (ip), vehicle: other 89 % of control

Clc1ccc(C2OCCO2)cc1
inactive: [7] 94 % of control | [8] 95 % of control | [9] 107 % of control

O=C(COc1ccccc1)NCCO
inactive: [7] 110 % of control | [3] 100 % of control | [8] 103 % of control | [4] 97 % of control | [9] 111 % of control | [10] 102 % of control

O=[N+]([O-])C(Cl)(CN1CCOCC1)CN1CCOCC1
inactive: dose: 11.1 mg/kg/injection, schedule: Q01DX Z (ip), vehicle: saline 113 % of control | dose: 16.6 mg/kg/injection, schedule: Q01DX Z (ip), vehicle: saline 91 % of control | dose: 25.0 mg/kg/injection, schedule: Q01DX Z (ip), vehicle: saline 95 % of control

O=C(/C=C/C(=O)Oc1c(Cl)cc(Cl)cc1Cl)Oc1c(Cl)cc(Cl)cc1Cl
inactive: [7] 106 % of control | [3] 96 % of control | dose: 100.0 mg/kg/injection, schedule: Q04DX003 (ip), vehicle: saline with Tween-80 96 % of control | [8] 104 % of control | [4] 105 % of control | dose: 200.0 mg/kg/injection, schedule: Q04DX003 (ip), vehicle: saline with Tween-80 93 % of control | [9] 96 % of control | [10] 98 % of control | dose: 400.0 mg/kg/injection, schedule: Q04DX003 (ip), vehicle: saline with Tween-80 91 % of control

O=C(Nc1ccccc1)Oc1ccc(OCc2ccccc2)cc1
inactive: dose: 12.5 mg/kg/injection, schedule: Q04DX003 (ip), vehicle: saline with Tween-80 95 % of control | dose: 25.0 mg/kg/injection, schedule: Q04DX003 (ip), vehicle: saline with Tween-80 93 % of control | dose: 50.0 mg/kg/injection, schedule: Q04DX003 (ip), vehicle: saline with Tween-80 93 % of control

O=C1c2ccccc2-c2cc3ccccc3cc21
inactive: dose: 100.0 mg/kg/injection, schedule: Q01DX001 (ip), vehicle: saline 100 % of control | [7] 92 % of control | [3] 108 % of control | dose: 200.0 mg/kg/injection, schedule: Q01DX001 (ip), vehicle: saline 101 % of control | [8] 92 % of control | [4] 108 % of control | dose: 400.0 mg/kg/injection, schedule: Q01DX001 (ip), vehicle: saline 103 % of control | [9] 90 % of control | [10] 110 % of control

OC[P+](CO)(CO)CO
inactive: dose: 25.0 mg/kg/injection, schedule: Q04DX002 (ip), vehicle: saline 113 % of control | dose: 50.0 mg/kg/injection, schedule: Q04DX002 (ip), vehicle: saline 103 % of control | dose: 100.0 mg/kg/injection, schedule: Q04DX002 (ip), vehicle: saline 100 % of control and 109 % of control

CCCCCCCCCCCCCCCC(=O)N(CC)CC
inactive: [11] 104 % of control | dose: 100.0 mg/kg/injection, schedule: Q01DX009 (ip), vehicle: carboxymethylcellulose (CMC) 98 % of control and 104 % of control | dose: 100.0 mg/kg/injection, schedule: Q04DX003 (ip), vehicle: carboxymethylcellulose (CMC) 96 % of control | [12] 96 % of control | dose: 200.0 mg/kg/injection, schedule: Q01DX009 (ip), vehicle: carboxymethylcellulose (CMC) 96 % of control and 102 % of control | dose: 200.0 mg/kg/injection, schedule: Q04DX003 (ip), vehicle: carboxymethylcellulose (CMC) 92 % of control | [13] 95 % of control | dose: 400.0 mg/kg/injection, schedule: Q01DX009 (ip), vehicle: carboxymethylcellulose (CMC) 96 % of control and 89 % of control | dose: 400.0 mg/kg/injection, schedule: Q04DX003 (ip), vehicle: carboxymethylcellulose (CMC) 94 % of control

CN(C)c1ccc(/C=C(\C#N)c2nc3ccccc3[nH]2)cc1
inactive: [1] 96 % of control | [3] 91 % of control | [2] 99 % of control | [4] 94 % of control | dose: 400.0 mg/kg/injection, schedule: Q01DX001 (ip), vehicle: Klucel (hydroxypropylcellulose) (HPC) 96 % of control | [10] 93 % of control

CCCCCCCCCCCCCCCNC1=C(C)C(=O)C(NCCCCCCCCCCCCCCC)=C(C)C1=O
inactive: [11] 93 % of control | [12] 98 % of control | [13] 89 % of control

N#CC1(NC(=O)CCl)CCCCC1
inactive: [5] 96 % of control | [6] 91 % of control

O=C(Nc1cccc(Cl)c1)OCC(Cl)(Cl)Cl
inactive: [7] 88 % of control | [3] 98 % of control | [8] 95 % of control | [4] 104 % of control | [9] 92 % of control | [10] 100 % of control

COc1nc(N)c([N+](=O)[O-])c(OC)n1
inactive: dose: 16.0 mg/kg/injection, schedule: Q01DX Z (ip), vehicle: methylcellulose (MC) 97 % of control | dose: 31.0 mg/kg/injection, schedule: Q01DX Z (ip), vehicle: methylcellulose (MC) 90 % of control | dose: 62.0 mg/kg/injection, schedule: Q01DX Z (ip), vehicle: methylcellulose (MC) 103 % of control

S=P1(Oc2ccccc2)Nc2ccccc2N1c1ccccc1 (stereo unspecified)
inactive: dose: 100.0 mg/kg/injection, schedule: Q04DX002 (ip), vehicle: saline with Tween-80 92 % of control | dose: 200.0 mg/kg/injection, schedule: Q04DX002 (ip), vehicle: saline with Tween-80 98 % of control | dose: 400.0 mg/kg/injection, schedule: Q04DX002 (ip), vehicle: saline with Tween-80 95 % of control

O=C1C2=C(C(=O)c3ccccc31)C1C=CC2CC1
inactive: dose: 50.0 mg/kg/injection, schedule: Q01DX001 (ip), vehicle: carboxymethylcellulose (CMC) 111 % of control | [11] 101 % of control
